Source: US12404332B2, “Methods for diagnosing and treating cancers” (Research Development Foundation, priority 2020, dated 2025)

What was measured:
ID8agg cells = assay: Tumor-initiating cell (TIC) flow cytometry, ID8agg cells; format: cell-based, mouse
[1] = tested on: PD-1 and β2M on OVCAR5 (human ovarian) cells; assay: PD-1 and B2M expression on OVCAR5 cells; format: cell-based
Method: Tumor and ascites were collected for flow cytometry analyses. Summary graph of CD45-PD-L1 cell percentage and MFI. FIG. 33D, PD-1 and B2M expression on OVCAR5 (human ovarian) cells treated with (+) or without (−) chlorambucil for 48 hours.
(§1) Flow cytometry: Mice were sacrificed by cervical dislocation after induction of deep isoflurane anesthesia. ID8agg tumors were collected and cells were stained as described (Derup et al., 2020) using LSR II hardware and analyzed by FACS Diva (BD Bioscience) or Flow Jo software (Flow Jo, LLC). Anti-mouse (clone 10F.9G2) and human (clone 29E.2A3) PD-L1 [both PE/Cy7, Cat #124314 (mouse) 329718 (human)] were matched with isotype control. Apoptosis assessment used Annexin V and propidium iodide (Thermo Scientific) per manufacturer instruction.

ES2 cells = assay: Tumor-initiating cell (TIC) flow cytometry, ES2 cells; format: cell-based, human
Method: FIGS. 40A-C: CAMB suppresses mTORC1 signals and reduces TIC numbers. FIG. 40A, Western blots for proteins in the mTORC1 pathway. Cells were treated with chlorambucil as indicated concentration for 48 hours. FIG. 40B, Western blot for LC3I/II to assess autophagy in cell lysates treated±chlorambucil at indicated concentrations. FIG. 40C, Percent of ALDH^hi TIC by flow cytometry of ES2 cells cultured±chlorambucil. Percent CD44^+CD24^+ ID8agg TIC and CD44^+CD133^+CD24^+ B16 TIC detected by flow cytometry.
as §1

PD-L1 in OVCAR5 cells = assay: PD-L1 mRNA, protein and ubiquitination in OVCAR5 cells; format: cell-based, human
Method: FIGS. 39A-C: CAMB reduces PD-L1 through ubiquitination. FIG. 39A, RT-qPCR for PD-L1 mRNA in OVCAR5 and ID8agg cells treated with (+) or without (−) chlorambucil for 48 hours. (n=4). FIG. 39B, Western blot for PD-L1 protein in OVCAR5 cells with (+) or without (−) MG132 for 6 or 20 hours. (upper panel). PD-L1 expression in OVCAR5 cells treated with chlorambucil 48 hours and/or MG132 for 6 hours (lower panel). FIG. 39C, Ubiquitinated PD-L1 was immunoprecipitated (IP) and subjected to Western blot analysis with anti-ubiquitin (Ub) antibody. Cells were treated with chlorambucil for indicated times prior to ubiquitination analysis.
Western blotting and immunoprecipitation: To prepare whole cell lysates, cells were harvested and lysed in RIPA (radioimmunoprecipitation assay) buffer plus 1 mM phenylmethylsulphonyl fluoride and Halt protease/phosphatase inhibitor cocktail (Thermo Scientific) at 4° C. Protein concentrations were measured by BCA Protein Assay Kit (Thermo Scientific). Protein was run on precast 4-15% sodium dodecyl sulfate polyacrylamide gels (Bio-Rad), transferred to polyvinylidene fluoride membranes (GE Water and Process Technologies), and then blocked in 5% non-fat milk for 1 hour at room temperature. The membranes were then incubated with 1:1000 diluted primary antibodies against indicated proteins (Cell Signaling). Specific antibody binding was detected by chemiluminescence using Western Lightening Plus regent (Perkin Elmer). Cells for (co) immunoprecipitation experiments were seeded in 15-cm dishes and cultured as described, using 6 million cells per immunoprecipitation reaction. For protein ubiquitination, cells were lysed in denaturing buffer (50 mM Tris-HCl, 0.5 mM EDTA and 1% SDS) followed by heating at 95° C. for 10 minutes and then quenched with 9 volumes of quenching buffer (0.5% Triton X-100, 20 mM Tris-HCl (pH 8.0), 137 mM NaCl, 10% glycerol, 2 mM EDTA). Protease inhibitor cocktail (Roche) was added fresh to all buffers. Cell lysates were incubated on a rotator for 30 minutes at 4° C., and then centrifuged at 20,000 g for 15 minutes at 4° C. Supernatants were subsequently incubated with anti-PD-L1 antibody overnight and processed using Dynabeads Protein G for Immunoprecipitation (Thermo Fisher Scientific). The final eluate was processed and Western blotting was performed.
Quantitative Real-Time Reverse Transcriptase Polymerase Chain Reaction: Total RNA was isolated from homogenized whole lung tissue with Trizol reagent (Invitrogen) according to manufacturer instructions. […] Quantitative PCR (qPCR) was conducted using the Bio-Rad Real-Time PCR System (Applied Biosystems), amplified with transcript-specific primers with SYBR Green (Thermo Scientific), according to manufacturer instructions. […]

B16 tumors = assay: B16 tumor challenge in mice treated with chlorambucil; format: in vivo, mouse
Description: Mice and in vivo treatments: Wild-type (WT) C57BL/6 mice NSG were purchased from Jackson Labs (Bar Harbor, ME), bred in our animal facility and used at 7-20 weeks old. All mice were given ad libitum water and food and housed under specific pathogen-free conditions. Mice used here were matched for sex and age in each experiment. 1×10^5 control or PD-L1^KOB16 cells were given subcutaneously (SQ, both sexes). 4×10^6 control or PD-L1^lo ID8agg cells in log growth phase were given intraperitoneally (females only). B16 tumor growth was measured with Vernier calipers and volume was calculated as (length×width^2)/2. Intraperitoneal ID8agg tumor growth was determined by IVIS Lumina Imaging System (Perkin Elmer; Waltham, MA) 15 minutes after i.p. injection of 3 mg of PBS-dissolved d-luciferin K+ (Gold Biotechnology; St. Louis, MO) with 30 second exposures, medium binning, and F/stop=1. Identical regions of interest were drawn over each subject's abdomen and average radiance (photons/see/cm2/sr) was quantified with Living Image software version 4.2. Body weight was measured every week for PD-L1^lo ID8agg mice as a surrogate for tumor growth, and tumors were weighed at end-experiment in confirmation. Survival was determined as >1500 mm^3 for SQ tumors and distress or >20% mouse weight gain for PD-L1^lo ID8agg tumors. […]

O=C(O)CCCc1ccc(N(CCCl)CCCl)cc1 [chlorambucil]
CD44^+CD133^+CD24^+ TIC population (ID8agg cells): significantly reduced
PD-1 and β2M on the cell surface [1]: Upregulation
ALDH^hi TIC population (ES2 cells): significantly reduced
amount of ubiquitinated PD-L1 (PD-L1 in OVCAR5 cells; Co-IP): increased
PD-L1 mRNA (PD-L1 in OVCAR5 cells; OVCAR5 cells): little changed
treatment efficacy in PD-L1^KO B16 challenge (B16 tumors; WT mice): significantly reduced
treatment of tumors (B16 tumors; severely immunodeficient NSG mice, B16): effectively treated both
